Assay results taken from patent US10537611B2, “Methods of treating lung cancer” (Five Prime Therapeutics, Inc., priority 2011, dated 2020).

Assay: Serum phosphate in rats
Assay type: in vivo, rat
Settings: 50 mg/kg/day oral gavage, at 24 hour or 1 week of daily dosing
Experimental: In the first experiment, Sprague Dawley rats (Charles River Labs; N=5/group) were dosed with vehicle, 10, 50 or 200 mg/kg/qwk of FGFR1-ECD.339-Fc for four weekly doses and plasma concentrations of FGFR1-ECD.339-Fc were determined throughout the study by an ELISA based detection method.
In the second experiment, Sprague Dawley rats (Charles River Labs; N=5/group) were administered the FGFR kinase inhibitor PD173074 (Chemdea, Ridgewood, N.J.; 50 mg/kg/day) or vehicle control by oral gavage for 7 days; or were administered FGFR1-ECD.339-Fc (200 mg/kg) or appropriate vehicle weekly by intravenous administration. Blood samples were collected at the time points indicated and serum phosphate was determined at 24 and 168 hours post-initiation of dosing (Idexx laboratories, Westbrook, Mass.).

## CCN(CC)CCCCNc1ncc2cc(-c3cc(OC)cc(OC)c3)c(NC(=O)NC(C)(C)C)nc2n1 [PD173043]
  plasma phosphate levels: significantly elevated
